{"source": "paper PMC10630888", "about": "“Nuclear ERK1/2 signaling potentiation enhances neuroprotection and cognition via Importinα1/KPNA2” (EMBO Molecular Medicine, 2023)", "key": {"[1]": {"system": "corticostriatal synapses on dSPNs", "assay": "Patch clamp, HFS-LTD at corticostriatal synapses on dSPNs", "assay_type": "cell-based, mouse", "settings": "peptide 50 μM intracellularly, mean, RB5 n = 7 cells, Scr n = 5 cells", "description": "Brain slices containing both the striatum and the cortex were prepared as described (Trusel et al, [2015]). Mice were anesthetized by isoflurane and decapitated, and their brains were rapidly transferred to ice‐cold dissecting aCSF containing (in mM): 110 Choline‐Cl, 2.5 KCl, 1.25 NaH2PO4, 7 MgCl26H2O, 0.5 CaCl2, 25 NaHCO3, 25 D‐glucose, 11.6 ascorbic acid, saturated with 95% O2 and 5% CO2. Horizontal corticostriatal slices (270 μm thick; patch‐clamp recordings) were cut in the dissecting aCSF using a Vibratome 1000S slicer (Leica, Italy), then transferred to normal aCSF containing (in mM): 115 NaCl, 3.5 KCl, 1.2 NaH2PO4, 1.3 MgCl26H2O, 2 CaCl2, 25 NaHCO3, and 25 D‐glucose and aerated with 95% O2 and 5% CO2. Following 20 min of incubation at 32°C, slices were kept at RT. During experiments, slices were continuously perfused with aCFS at a rate of 2 ml/min at 28°C. […]\nSPNs were clamped at a holding membrane potential of −80 mV. […] Series resistance (range 15–25 MW) was monitored at regular intervals throughout the recording and presented minimal variations (≤20%) in the analyzed cells. […]\nThe occurrence and magnitude of synaptic plasticity was evaluated by comparing the normalized EPSP amplitudes from the last 5 min of baseline recordings with the corresponding values at 20–30 min after HFS (HFS‐LTD). […]"}, "[2]": {"system": "phospho-ERK1/2 in HEK293 cells", "assay": "phospho-ERK1/2 immunofluorescence (nuclear) in HEK293 cells", "assay_type": "cell-based", "settings": "HEK293, siRNA 200 nM 24 h, then RB5 50 μM 15 min", "description": "For Western blot and immunofluorescence analysis, 0.6 × 10^6 HEK293 cells were seeded in 6‐well plates in the presence of DMEM High Glucose GlutaMax (Thermo Fisher Scientific) containing 10% Foetal Bovine Serum (FBS, Thermo Fisher Scientific) and 100 U/ml penicillin/streptomycin (Thermo Fisher Scientific). For Western blot analysis to assess ERK1/2 and phospho‐ERK1/2 levels, cells were serum starved for 24 h and incubated with RB5 50 μM or FBS 20% for 15 min at 37°C. To assess JNK and phospho‐JNK levels, cells were incubated with RB5 50 μM or anisomycin 5 μM for 30 min at 37°C. For immunofluorescence analysis, cells were serum‐starved for 24 h and incubated with 50 μM RB5 or 20% FBS for 15 min at 37°C.\nAfter rinsing in PBS, cells were fixed in 4% PFA and permeabilized with increasing concentrations of methanol (33, 50, 75, and 95% in PBS, 2 min each at room temperature), followed by 100% methanol for 10 min at −20°C. […] The mean fluorescence intensity in the nucleus was calculated automatically by Fiji‐ImageJ software in 8–10 fields per slide. […]"}}, "data": [{"substance": "SCR: ineffective Scramble version of RB5 containing a TAT sequence (GRKKRRQRRRPPRVGPGVPEGVGVAVFGVKEPGQTGDVGPVGE) [reference compound]", "values": [{"measurement": "Normalized EPSP amplitude after HFS (20–30 min) versus baseline", "setting": "[1]; listed as Scr", "result": 76.7653}, {"measurement": "Normalized EPSP amplitude after HFS (20–30 min) versus baseline", "setting": "[1]; listed as control peptide", "result": "had no effect on plasticity induction"}]}, {"substance": "GRKKRRQRRRPPQGGGGGEPRRTEGVGPGVPGEVEMVKGQPFDV [RB5, six D-amino acids, acetylated N-terminus]", "values": [{"measurement": "ERK1/2 activation (nuclear phospho-ERK1/2) after KPNA2 or IPO7 downregulation", "setting": "[2]", "result": "failed to induce ERK1/2 activation"}]}]}
